Measurements published in patent US20130178450A1, “METHODS FOR INCREASING THE PRODUCTION OR ACTIVITY OF CATALASE” (Nestec SA, priority 2010, published 2013).

Columns and labels:
Assay type in all cases: cell-based, canine
[1] = tested on: catalase (CAT); test: Enzymatic activity of catalase in treated cbTCC cells (Cayman kit, Purpald); conditions: 24 hours, mean ± standard deviation, control 11.20 ± 0.43
Experimental: Treatments were done in at least triplicates. […] The enzymatic activity of catalase was determined using assay kits from Cayman Chemical Co., Ann Arbor, Mich., according to manufacturer's directions. The assay utilized the peroxidatic function of CAT for determination of enzymatic activity, based on the reaction of the enzyme with methanol in the presence of an optimal concentration of H2O2. […] Purpald specifically forms a bicyclic heterocycle with aldehydes, which upon oxidation changes from colorless to a purple color. The absorbance was read at 540 nm using a spectrophotometric plate reader. Results were calculated from standard curve from known samples and by using the provided equations. From that, the enzymatic activity of CAT was derived as nmol/min/ml CAT. Samples were done in triplicate. A one-tail t-test assuming equal variance was performed to determine significance.

[2] = tested on: CAT; test: Quantitative PCR gene expression of CAT in cbTCC cells; conditions: 24 hours, normalized to Cyclophilin A, mean ± SEM, control 1.86 ± 0.11
[3] = tested on: Cu/ZnSOD; test: Quantitative PCR gene expression of Cu/ZnSOD in cbTCC cells; conditions: 24 hours, normalized to Cyclophilin A, mean ± SEM, control 1.11 ± 0.02
[4] = tested on: MnSOD; test: Quantitative PCR gene expression of MnSOD in cbTCC cells; conditions: 24 hours, normalized to Cyclophilin A, mean ± SEM, control 1.28 ± 0.05
[5] = tested on: PTHrP; test: Quantitative PCR gene expression of PTHrP in cbTCC cells; conditions: 24 hours, normalized to Cyclophilin A, mean ± SEM, control 1.35 ± 0.09
[6] = tested on: catalase (CAT); test: Western blot analysis of catalase protein expression in cbTCC cells; conditions: 10^−9M, 24 hours, normalized to β-actin, control = 100 percent, ± standard deviation
Experimental: (§1) Treatments were done in at least triplicates. […] Harvested cells were homogenized, and analyzed for the production of manganese superoxide dismutase (MnSOD), copper/zinc superoxide dismutase (Cu/ZnSOD), catalase (CAT), and glutathione peroxidase (GPX). Cell lysates were collected after centrifugation, and total protein was quantitated. […] Transblotted membranes were blocked overnight at 4° C. with the addition of 5% skim milk in Tris-buffered saline (TBS). The membranes were cut at the molecular weight of 37 kD (green band) and 25 kD (pink band). The top part of the membranes were stained for CAT, GPX, and β-actin, and the bottom part for MnSOD and Cu/ZnSOD. The primary antibodies for specific proteins were used at the following dilutions: […] Secondary antibodies are their respective IgG-HRP conjugates used at 1:2000. […] CAT, MnSOD and Cu/ZnSOD, n=7; GPX, n=4. Prior to transforming data as percent of control, a one-tail paired t-test assuming equal variance was performed to determine significance.

[7] = tested on: manganese superoxide dismutase (MnSOD); test: Western blot analysis of MnSOD protein expression in cbTCC cells; conditions: 10^−9M, 24 hours, normalized to β-actin, control = 100 percent, ± standard deviation
Experimental: as §1

[8] = tested on: copper/zinc superoxide dismutase (Cu/ZnSOD); test: Western blot analysis of Cu/ZnSOD protein expression in cbTCC cells; conditions: 10^−9M, 24 hours, normalized to β-actin, control = 100 percent, ± standard deviation
Experimental: as §1

[9] = tested on: glutathione peroxidase (GPX); test: Western blot analysis of GPX protein expression in cbTCC cells; conditions: 10^−9M, 24 hours, normalized to β-actin, control = 100 percent, ± standard deviation
Experimental: as §1

[10] = tested on: VDR; test: Quantitative PCR gene expression of VDR in cbTCC cells; conditions: 24 hours, normalized to Cyclophilin A, mean ± SEM, control 2.09 ± 0.19

| SMILES | Enzymatic activity of catalase ([1]; 10^−9M) | Enzymatic activity of catalase ([1]; 10^−7M) | CAT gene expression value by quantitative PCR ([2]; 10^−7 M) | CAT gene expression value by quantitative PCR ([2]; 10^−9 M) | Cu/ZnSOD gene expression value by quantitative PCR ([3]; 10^−7 M) | Cu/ZnSOD gene expression value by quantitative PCR ([3]; 10^−9 M) | MnSOD gene expression value by quantitative PCR ([4]; 10^−7 M) | MnSOD gene expression value by quantitative PCR ([4]; 10^−9 M) | PTHrP gene expression value by quantitative PCR ([5]; 10^−7 M) | PTHrP gene expression value by quantitative PCR ([5]; 10^−9 M) | Catalase protein expression, percent intensity of the protein band relative to the control [6] | MnSOD protein expression, percent intensity of the protein band relative to the control [7] | Cu/ZnSOD protein expression, percent intensity of the protein band relative to the control [8] | GPX protein expression, percent intensity of the protein band relative to the control [9] | VDR gene expression value by quantitative PCR ([10]; 10^−7 M) | VDR gene expression value by quantitative PCR ([10]; 10^−9 M) |
| --- | --- | --- | --- | --- | --- | --- | --- | --- | --- | --- | --- | --- | --- | --- | --- | --- |
| C=C1C(=CC=C2CCCC3(C)C(C(C)CC#CC(C)(C)O)=CCC23)CC(O)CC1O (stereo not drawn) [Analog V, 1α,25-dihydroxy-16-ene-23-yne-vitamin D3] | 13.93 ± 0.53 nmol/min/mL |  |  |  |  |  |  |  |  |  |  |  |  |  |  |  |
| C=C1/C(=C\C=C2/CCC[C@]3(C)[C@@H]([C@H](C)CCCC(C)(C)O)CC[C@@H]23)C[C@@H](O)C[C@@H]1O [Calcitriol, 1α,25-dihydroxyvitamin D3] | 12.51 ± 0.42 nmol/min/mL | 12.24 ± 0.80 nmol/min/mL | 2.60 ± 0.11 | 2.13 ± 0.06 | 1.18 ± 0.03 | 1.16 ± 0.02 | 1.05 ± 0.03 | 1.15 ± 0.04 | 1.16 ± 0.05 | 1.36 ± 0.11 |  |  |  |  |  |  |
| C=C1/C(=C\C=C2/CCC[C@]3(C)[C@@H]([C@H](C)/C=C/C=C/C(O)(CC)CC)CC[C@@H]23)C[C@@H](O)C[C@@H]1O [Seocalcitol, 1α,25-dihydroxy-22,24-diene-24,26,27-trihomovitamin D] | 13.99 ± 0.99 nmol/min/mL |  | 2.66 ± 0.08 | 2.55 ± 0.13 | 1.17 ± 0.01 | 1.20 ± 0.07 | 1.11 ± 0.05 | 1.16 ± 0.05 | 1.20 ± 0.07 | 1.30 ± 0.02 | 162.68 ± 39.88% | 113.48 ± 20.56% | 101.27 ± 26.41% | 81.85 ± 37.45% | 1.99 ± 0.09 | 1.45 ± 0.10 |
